PubChem BioAssay (NCI)
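Growth conditions: 96-well plates. Treatment: test compound, 48 hours, 5 concentrations. Analysis: linear interpolation between bracketing concentrations; unreached endpoints set to highest concentration. TGI: concentration producing complete growth inhibition.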

What was measured:
Experiment in all cases: DTP human tumour cell line panel, 48 h
SK-MEL-28 melanoma = system: SK-MEL-28 melanoma
IGROV1 ovarian = system: IGROV1 ovarian
SF-295 CNS = system: SF-295 CNS
CCRF-CEM leukemia = system: CCRF-CEM leukemia
UO-31 renal = system: UO-31 renal
COLO 205 colon = system: COLO 205 colon
OVCAR-4 ovarian = system: OVCAR-4 ovarian
RXF 393 renal = system: RXF 393 renal
MDA-MB-231 breast = system: MDA-MB-231 breast
MCF7 breast = system: MCF7 breast

| Structure (SMILES) | TGI (SK-MEL-28 melanoma) [µM] | TGI (IGROV1 ovarian) [µM] | TGI (SF-295 CNS) [µM] | TGI (CCRF-CEM leukemia) [µM] | TGI (UO-31 renal) [µM] | TGI (COLO 205 colon) [µM] | TGI (OVCAR-4 ovarian) [µM] | TGI (RXF 393 renal) [µM] | TGI (MDA-MB-231 breast) [µM] | TGI (MCF7 breast) [µM] |
| --- | --- | --- | --- | --- | --- | --- | --- | --- | --- | --- |
| CCOC(OCC)C(CC)[Se]c1ccccc1 (configuration not stated) | > 100 | > 100 | > 100 | > 100 | > 100 | > 100 | > 100 | > 100 | – | – |
| O=c1[nH]c(=O)n(COCc2ccccc2)c2ccccc12 | > 100 | > 100 | > 100 | > 100 | > 100 | > 100 | > 100 | 94.5 | > 100 | > 100 |
| COc1ccc(C2=C(Cl)c3cc(OC)c(OC)cc3C2)cc1OC | > 100 | > 100 | > 100 | > 100 | > 100 | > 100 | > 100 | 73.7 | – | – |
| O=c1[nH]nc(Cc2ccc(Cl)cc2)n1/N=C/c1c[nH]c2ccccc12 | > 100 | > 100 | > 100 | > 100 | > 100 | – | > 100 | – | > 100 | > 100 |
| NCCS(=O)(=O)O | > 100 | > 100 | > 100 | > 100 | > 100 | > 100 | – | – | > 100 | > 100 |
| COc1cc2[nH]c(=O)c3cc(C)cc4c(Cl)nc(c1OC)c2c43 | > 100 | > 100 | > 100 | > 100 | > 100 | > 100 | > 100 | 58.1 | > 100 | > 100 |
| Cc1ccc(C#CS(=O)(=O)C(F)(F)F)cc1 | > 100 | > 100 | > 31.6 | > 100 | > 100 | > 100 | > 100 | > 100 | – | > 100 |
| Cc1cc2oc3c(ccc(=O)n3C)c(=O)c2c(C)c1Cl | 73.1 | > 100 | > 100 | > 100 | > 100 | > 100 | > 100 | 95.6 | > 100 | – |
| Cc1ccc(NC(=O)/C(=N/NC(=O)C[N+](C)(C)C)c2nc3ccccc3[nH]c2=O)cc1 | > 100 | > 100 | > 100 | – | > 100 | > 100 | > 100 | > 100 | – | – |
| Cn1cnc(SC2=C3C(=O)C=C4S[C@H]5C[C@]42c2c(c(O)c4c6c2=[N+]3CCC=6C=N4)N5)c1CC(N)C(=O)O (some centres not stated) | 31.9 | 30.2 | 29.4 | 45.9 | 37.6 | 4.44 | 31.1 | 43.8 | – | – |
| O=C(NNS(=O)(=O)c1ccccc1)c1csc(NC(=S)NC2CCCCC2)n1 | – | 85.1 | > 100 | > 100 | 74.1 | 43.3 | > 100 | – | 52.6 | > 100 |
| C=CCOCn1ccc(N)nc1=O | > 100 | > 100 | > 100 | > 100 | > 100 | > 100 | – | – | > 100 | > 100 |
| COc1cccc([C@@H]2CC(=O)c3cc4c(cc3N2)OCO4)c1 | > 100 | – | > 100 | > 100 | > 100 | > 100 | > 100 | > 100 | > 100 | > 100 |
| CN(C)C=NCC(O)c1ccccc1 (configuration not stated) | > 100 | > 100 | – | > 100 | > 100 | > 100 | > 100 | > 100 | > 100 | > 100 |
| COc1ccc(C2=NNC(c3cc4cc(Br)ccc4nc3Cl)C2)cc1 (configuration not stated) | > 25 | > 25 | – | 5.28 | > 25 | > 25 | > 25 | – | – | > 25 |
| Cc1ccc(N=C2SC(=NN(C)C)SC2=Nc2ccc(C)cc2)cc1 | > 100 | > 100 | > 100 | > 100 | > 100 | > 100 | > 100 | > 100 | > 100 | – |
| C[C@@]12C[C@@H](c3ccccc3O1)N1Cc3ccccc3CSC1=N2 | > 100 | > 100 | > 100 | – | > 100 | > 100 | > 100 | > 100 | > 100 | > 100 |
| N#CCc1nc2cc(C(F)(F)F)ccc2s1 | – | – | > 100 | – | – | > 100 | > 100 | > 100 | > 100 | – |
| O=Cc1c(Br)[nH]c2ccccc12 | > 100 | > 100 | > 100 | > 100 | > 100 | > 100 | > 100 | > 100 | – | > 100 |
| S=C(N/N=C(\C(=N/NC(=S)N1CCCCC1)c1ccccn1)c1ccccn1)N1CCCCC1 | > 100 | > 100 | > 100 | 57.4 | > 100 | > 100 | – | 73.4 | > 100 | > 100 |
| CC1(C)CN=CC(C)(OCc2ccccc2)C(=O)NC(C)(C)CN=CC(C)(OCc2ccccc2)C(=O)N1 (configuration not stated) | > 10 | > 10 | > 10 | > 10 | > 10 | – | – | > 10 | > 10 | > 10 |
| N#Cc1c(N2CCCC2)nsc1Nc1ccc(F)cc1 | > 100 | > 100 | > 100 | > 100 | – | > 100 | > 100 | > 100 | > 100 | – |
| CC1CCOc2ccc(cc2)C=Nc2ccc(cc2)-c2ccc(cc2)N=Cc2ccc(cc2)OCC1 (configuration not stated) | > 100 | > 100 | > 100 | > 100 | > 100 | > 100 | > 100 | – | > 100 | > 100 |
